Assay results: US9938562B2, “Naphthalene derived chromogenic enzyme substrates” (Glycosynth Limited, priority 2013, dated 2018)
Like-named read-outs stand apart in the source and are kept apart here.

Columns and labels:
[1] = tested on: Escherichia coli NCTC 10418; test: Agar plate multi-point inoculation, colour; type: cell-based
[2] = tested on: Providencia rettgeri NCTC 7475; test: Agar plate multi-point inoculation, colour; type: cell-based
[3] = tested on: Enterobacter cloacae NCTC 11936; test: Agar plate multi-point inoculation, colour; type: cell-based
[4] = tested on: Serratia marcescens NCTC 10211; test: Agar plate multi-point inoculation, colour; type: cell-based
[5] = tested on: Salmonella typhimurium NCTC 74; test: Agar plate multi-point inoculation, colour; type: cell-based
[6] = tested on: Pseudomonas aeruginosa NCTC 10662; test: Agar plate multi-point inoculation, colour; type: cell-based
[7] = tested on: Yersinia enterocolitica NCTC 11176; test: Agar plate multi-point inoculation, colour; type: cell-based; details: Columbia agar, FAC 500 mg/L, substrate 300 mg/L, 37° C. 18 h in air
[8] = tested on: Steptococcus pyogenes NCTC 8306; test: Agar plate multi-point inoculation, colour; type: cell-based
[9] = tested on: Staphylococcus aureus (MRSA) NCTC 11939; test: Agar plate multi-point inoculation, colour; type: cell-based; details: for Colour: Columbia agar, FAC 500 mg/L, substrate 300 mg/L, 37° C. 18 h in air
[10] = tested on: Staphylococcus aureus NCTC 6571; test: Agar plate multi-point inoculation, colour; type: cell-based
[11] = tested on: Staphylococcus epidermidis NCTC 11047; test: Agar plate multi-point inoculation, colour; type: cell-based
[12] = tested on: Listeria monocytogenes NCTC 11994; test: Agar plate multi-point inoculation, colour; type: cell-based
[13] = tested on: Enterococcus faecium NCTC 7171; test: Agar plate multi-point inoculation, colour; type: cell-based
[14] = tested on: Enterococcus faecalis NCTC 775; test: Agar plate multi-point inoculation, colour; type: cell-based
[15] = tested on: Bacillus subtilis NCTC 9372; test: Agar plate multi-point inoculation, colour; type: cell-based
[16] = tested on: Candida albicans ATCC 90028; type: cell-based; details: Columbia agar, FAC 500 mg/L, substrate 300 mg/L, 37° C. 18 h in air
[17] = tested on: Candida glabrata NCPF 3943; test: Agar plate multi-point inoculation, colour; type: cell-based
[18] = tested on: Burkholderia cepacia 1222; test: Agar plate multi-point inoculation, colour; type: cell-based; details: Columbia agar, FAC 500 mg/L, substrate 300 mg/L, 37° C. 18 h in air
[19] = tested on: Citrobacter freundii NCTC 9750 or 46262; test: Agar plate multi-point inoculation, colour; type: cell-based; details: Columbia agar, FAC 500 mg/L, substrate 300 mg/L, 37° C. 18 h in air
[20] = tested on: Morganella morganii 462403 (wild); test: Agar plate multi-point inoculation, colour; type: cell-based; details: Columbia agar, FAC 500 mg/L, substrate 300 mg/L, 37° C. 18 h in air
[21] = tested on: Gram-positive or Gram-negative strains; test: Toxicity / growth of microorganisms on substrate agar plates; type: cell-based; details: substrate 300 mg/L
Experimental: This compound was tested on agar plates by multi-point inoculation. The plates were made from Columbia agar (Oxoid, Basingstoke, UK) (100 ml) supplemented with ferric ammonium citrate (FAC) (50 mg). After the agar had been autoclaved (121° C.) and cooled to 50° C., a filter sterilized solution of the substrate (8) (30 mg) dissolved in N-methylpyrrolidone (NMP) (200 μL) was added, thus giving a substrate concentration of 300 mg/L. After pouring, the plates were inoculated with a range of microorganisms and incubated at 37° C. for 18 h in air (Table 1).
In the publication of Zincke and Fries, the authors reported that treatment of 1,4,6,7-tetrabromo-DHN (20) with tin (II) chloride led to the removal of the bromines in the 1 and 4 positions. Their work was repeated and the expected 6,7-dibromo-DHN (21) was obtained smoothly and in good yield (68%). 6,7-Dibromo-DHN (21) is isomeric with the 1,4-dibromo compound which had proven unsuccessful as an aglycone for the detection of microorganisms. Notwithstanding this latter fact, we proceeded to evaluate the properties of 6,7-dibromo-DHN […] as an aglycone for artificial chromogenic enzyme substrates. […]

range of microorganisms = test: Agar plate evaluation with a range of microorganisms (hue, diffusion, background); type: cell-based; details: for colour (hue) after hydrolysis: agar plates with FAC
[22] = tested on: Klebsiella pneumoniae NCTC 9528; test: Agar plate multi-point inoculation, colour; type: cell-based
[23] = tested on: Burkholderia cepacia NCTC 10931; test: Agar plate multi-point inoculation, colour; type: cell-based; details: Columbia agar, FAC 500 mg/L, substrate 300 mg/L, 37° C. 18 h in air
[24] = tested on: Acinetobacter baumannii NCTC 19606; test: Agar plate multi-point inoculation, colour; type: cell-based
[25] = Columbia agar, FAC 500 mg/L, substrate 300 mg/L, 37° C. 18 h in air

| SMILES | Colour [1, 25] | Colour [2, 25] | Colour [3, 25] | Colour [4, 25] | Colour [5, 25] | Colour [6, 25] | Colour [7] | Colour [8, 25] | Colour [9] | Colour [10, 25] | Colour [11, 25] | Colour [12, 25] | Colour [13, 25] | Colour [14, 25] | Colour [15, 25] | Colour [16] | Colour [17, 25] | Colour [18] | Colour [19] | melting point | further results |
| --- | --- | --- | --- | --- | --- | --- | --- | --- | --- | --- | --- | --- | --- | --- | --- | --- | --- | --- | --- | --- | --- |
| OC[C@H]1O[C@@H](Oc2cc3cc(Br)c(Br)cc3cc2O)C(O)C1O (stereo partly drawn) [Compound 23, 6,7-Dibromo-DHN-β-D-ribofuranoside] | − | − | ++ | ++ | ++ | + | − | − | − | − | − | − | − | − | − | − | − | +/− | ++ |  | Colour [20]: ++; growth of Gram-positive bacteria [21]: mainly suppressed; colour (hue) after hydrolysis (range of microorganisms): largely discrete red-brown or maroon colonies |
| O=[N+]([O-])c1c(O)c(O[C@@H]2O[C@H](CO)C(O)C2O)cc2ccccc12 (stereo partly drawn) [Compound 19, 1-Nitro-DHN-β-D-ribofuranoside] |  |  |  |  |  |  |  |  |  |  |  |  |  |  |  |  |  |  |  | > 170 °C (dec.) | colour (hue) after hydrolysis (range of microorganisms): more distinctly red |
| O=C([O-])C1OC(Oc2cc3ccccc3cc2O)C(O)C(O)C1O.[Na+] [Compound 12b, DHN-β-D-glucuronide Sodium Salt] | ++ | − | − | − | − | − | − | − | − | − | − | − | − | − | − | − | − | − | − | 53 to 55 °C | hydrolysis of substrate (judged by colour) ([1]; agar plates containing FAC): strong colour; Colour [20]: − |
| O=P([O-])([O-])Oc1cc2ccccc2cc1O.[Na+].[Na+] [Compound 17, DHN-phosphate Disodium Salt] |  |  |  |  |  |  | +/− |  | + |  |  |  |  |  |  | − |  |  |  |  | Colour [1]: +/−; Colour [22]: ++; Colour [2]: +; Colour [3]: +/−; Colour [4]: ++; Colour [5]: ++; Colour [6]: −; Colour [23]: +/−; Colour [24]: −; Colour [8]: −; Colour [10]: +; Colour [11]: −; Colour [12]: +; Colour [13]: −; Colour [14]: −; Colour [15]: −; Colour [17]: − |
| OCC1OC(Oc2cc3ccccc3cc2O)C(O)C(O)C1O [Compound 4, DHN-β-D-glucopyranoside] | Tr. | ++ | + | ++ | − | − | − | − | − | − | − | + | + | + | + | − | − |  |  | > 210 °C (dec.) | Colour [22, 25]: ++; Colour [23]: −; Colour [24, 25]: − |
| CCCCCCCC(=O)Oc1cc2ccccc2cc1OC(=O)CCCCCCC [Compound 16, DHN-dicaprylate] | − | + | − | + | − | + | − | − | − | − | − | − | − | − | − | − | − |  |  |  | Colour [22, 25]: −; Colour [23]: −; Colour [24, 25]: + |
| OCC1OC(Oc2cc3ccccc3cc2O)C(O)C(O)C1O [Compound 8, DHN-β-D-galactopyranoside] | ++ | − | ++ | + | − | − | − | − | − | − | − | − | Tr. | − | − | − | − |  |  | > 230 °C (dec.) | Colour [22, 25]: ++; Colour [23]: −; Colour [24, 25]: −; toxicity to strains tested [21]: no obvious toxicity; colour (hue) after hydrolysis (range of microorganisms): strong purple-maroon colour; formation of coloured chelate (range of microorganisms; plates incubated under anaerobic conditions): still formed; sensitivity after autoclaving substrate in agar (range of microorganisms; substrate added prior to autoclaving, 121° C. for 20 minutes): no decrease in sensitivity |
| OCC1OC(Oc2cc3ccccc3cc2O)C(O)C(O)C1O [Compound 6, DHN-α-D-glucopyranoside] | + | − | ++ | ++ | − | − | Tr. | ++ | +/− | +/− | + | ++ | Tr. | ++ | ++ | − | − | − | − | 164 to 166 °C | Colour [20]: − |
| OC[C@H]1O[C@@H](Oc2cc3ccccc3cc2O)C(O)C1O (stereo partly drawn) [Compound 2, DHN-β-D-ribofuranoside] | ++ | ++ | ++ | ++ | ++ | − | − | − | + | + | − | − | − | − | − | − | − | − | ++ | 181 to 182 °C | hydrolysis of substrate ([9]; agar plates with FAC): able to hydrolyse; hydrolysis of substrate ([10]; agar plates with FAC): able to hydrolyse; hydrolysis of substrate ([11]; agar plates with FAC): unaffected; Colour [20]: ++ |
